According to patent publication US20190314377A1, “TREATMENT OF HEMATOLOGICAL MALIGNANCY WITH SMALL MOLECULE NF-KB INHIBITORS” (MEMORIAL SLOAN-KETTERING CANCER CENTER, priority 2016, published 2019):

Tests used:
[1] = system: luciferase-expressing MM.1S cells; assay: MM.1S xenograft model of multiple myeloma in NSG mice; assay type: in vivo, mouse; conditions: IT-848 10 mg/kg i.p. M/W/F x 4 weeks; Bortezomib 0.5 mg/kg i.p. M/T x 4 weeks
Method: NSG mice received 2.5×10^6 luciferase-expressing MM.1S cells intravenously. After 10 days engraftment was confirmed and mice were assigned to four groups: empty vehicle i.p. M/W/F×4 weeks; Bortezomib 0.5 mg/kg i.p. M/T×4 weeks; IT-848 10 mg/kg i.p. M/W/F×4 weeks; Bortezomib M/T+IT-848 M/W/F×4 weeks. A. Tumor growth was analyzed by in vivo bioluminescence imaging. B. Mean and SEM of bioluminescence intensities are presented. N=7-10 The area under the curve (AUC) was used to summarize the bioluminescence intensity for each subject and a permutation test was performed to determine if there was a difference in the AUCs between groups. P values are as follows: Group 1 vs. 2: 0.008; Group 2 vs. 3: 0.032; Group 1 vs 3: <0.001; Group 2 vs 4: <0.001; Group 1 vs 4: <0.001; Group 3 vs 4: 0.029.
In tumor xenograft experiments the bioluminescent signal intensity (BLI) of tumor bearing mice was determined weekly. […] The cause of death (tumor versus toxicity) was determined based on the presence of hind leg paralysis. Death in the absence of hind leg paralysis was attributed to toxicity.
Efficacy studies of IT-848 combined with drugs that are currently used clinically to treat B cell malignancies were also performed. […] Moreover, IT-848 was efficacious in a xenograft model of MM (FIGS. 14, 15A and 15B) and enhanced the efficacy of bortezomib (FIGS. 15A and 15B). Immunodeficient mice received bioluminescent MM.1S cells intravenously and bone marrow engraftment was confirmed by in vivo bioluminescence imaging (BLI) after ten days. Mice were assigned to three treatment groups (IT-848 single agent, bortezomib single agent, combination of IT-848 and bortezomib) and a control group (empty vehicle IP). Onset of hind leg paralysis, which is the clinical endpoint of progressive disease in this model, was delayed in all three treatment groups (FIG. 9).

TMD8 cells = assay: MTS assay, combination with Panobinostat in TMD8 cells; assay type: cell-based, human; conditions: IT-848 4 μM + Panobinostat 0.1 μM; 24 and 48 hours
Method: TMD8 and DLBCL cells were incubated for 48 hours in the presence of empty vehicle, IT-848 (4 μM), Panobinostat (0.1 μM), or a combination of IT-848 and Panobinaostat. Cell proliferation was analyzed after 24 and 48 hours by MTS assay. Mean and SEM of relative cell growth are presented.

[2] = system: U266 multiple myeloma cells; assay: MTS cell proliferation assay, U266; assay type: cell-based, human; conditions: 2, 4 and 6 μM, 24 and 48 hours
Method: U266 human multiple myeloma cells were incubated for 48 hours in the presence of empty vehicle or 2, 4 and 6 μM of IT-848, IT-878, PS-1145, or ibrutinib, Cell proliferation was analyzed after 24 and 48 hours by MTS assay. Mean and SEM or relative cell growth are presented.
(§1) TDM8, Ly19, L363, SUDHL4, MM.1S or U266 cells were independently incubated for up to 48 hours in the presence of empty vehicle, IT-compound (2, 4, 6 μM), PS-1145 (2, 4 and 6 μM), or ibrutinib (2, 4 and 6 μM). Cell growth was measured indirectly after 24 and 48 hours by CellTiter 96 Aqueous Non-Radioactive Cell Proliferation Assay (Promega, Madison, Wis.) per manufacturer's instructions. Briefly, tetrazolium compound [-(4,5-dimethylthiazol-2-yl)-5-(3-carboxymethoxyphenyl)-2-(4-sulfophenyl)-2H-tetrazolium, inner salt; MTS] was added to the culture media and the conversion of MTS into formazon was measured by the amount of 490 nm absorbance. The number of viable cells correlates with absorbance at 490 nm. The results are shown in FIGS. 5A-D. Mean and SEM of relative cell growth are presented.

[3] = system: Nrf2 transcriptional activity; assay: HepG2/Luciferase/Nrf2-ARE transcriptional reporter assay; assay type: cell-based; conditions: tert-butylhydroquinone treated; 12 hours; 1, 3, 6 and 10 μM
Method: (§2) Jurkat/GFP/NF-κB transcriptional reporter cells were stimulated with TNF-α, Jurkat/Luciferase/NFAT transcriptional reporter cells were stimulated with PMA/ionomycin, and HepG2/Luciferase/Nrf2-Antioxidant response element (ARE) transcriptional reporter cells were treated with tert-butylhydroquinone. The respective cell lines were incubated for 12 hours in the presence of empty vehicle or 1, 3, 6 and 10 μM of IT-848 or IT-878. NF-κB transcriptional activity was analyzed by flow cytometry, NFAT and Nrf2 transcriptional activities were analyzed by luminescence measurement. Mean and SEM of relative fluorescent or luminescent intensities are presented.
(§3) A NF-κB/Jurkat/GFP transcription reporter cell line was purchased from System Biosciences. NFAT/Jurkat/Luciferase transcriptional reporter cells were generated at Memorial Sloan-Kettering Cancer Center. HepG2/ARE/Luciferase Nrf2 transcriptional reporter cells were purchased from BPS biosciences.

mouse splenocytes [4] = assay: Toxicity to healthy cells (DAPI viability, MTS metabolic activity), mouse splenocytes; assay type: cell-based; conditions: 24 hours, 1, 3, 6 and 10 μM
Method: (§4) Mouse splenocytes and human peripheral blood mononuclear cells (PBMC) were incubated for 24 hours in the presence of empty vehicle or 1, 3, 6 and 10 μM of IT-848 or IT-878. Viability (percentage of DAPI-negative cells) was analyzed by flow cytometry and metabolic activity was analyzed by MTS assay. Mean and SEM of relative viability or metabolic activity are presented.
(§5) Human peripheral blood mononuclear cells (PBMC) were purified from donor blood according to accepted protocols. Mouse splenocytes were purified from mouse spleen using methods known to those skilled in the art.

[5] = system: NF-κB transcriptional activity; assay: Jurkat/GFP/NF-κB transcriptional reporter assay; assay type: cell-based; conditions: 12 hours; 1, 3, 6 and 10 μM
Method: Jurkat/GFP/NF-κB transcriptional reporter cells were stimulated with TNF-α and incubated for 8 and 22 hours in the presence of empty vehicle or 1, 3 and 6 μM of IT-848 or IT-878. NF-κB transcriptional activity (GFP mean fluorescence intensity) was analyzed by flow cytometry. Mean and SEM of relative fluorescent intensities are presented.
as §2, §3

[6] = Pharmacokinetics, plasma or whole blood levels by LC-MS/MS; assay type: in vivo; conditions: 5-10 mg/kg PO, IP or IV; in particular after IP or oral administration
Method: Plasma or whole blood samples were analyzed at several time points after intraperitoneal, intravenous or oral administration of 5-10 mg/kg of IT-848. Samples were analyzed by liquid chromatography-tandem mass spectrometry (LC-MS/MS). IT-848 is cleared slowly after systemic administration.

[7] = system: human peripheral blood mononuclear cells (PBMC); assay: Toxicity to healthy cells (DAPI viability, MTS metabolic activity), human PBMC; assay type: cell-based; conditions: 24 hours, 1, 3, 6 and 10 μM
Method: as §4, §5

HBL1 cells = assay: MTS assay, combination with Bortezomib in HBL1 cells; assay type: cell-based, human; conditions: IT-848 4 μM + Bortezomib 0.02 μM; 24 and 48 hours
Method: HBL1 human DLBCL cells were incubated for 48 hours in the presence of empty vehicle, IT-848 (4 μM), Bortezomib (0.02 μM), or a combination of IT-848 and Bortezomib. Cell proliferation was analyzed after 24 and 48 hours by MTS assay. Mean and SEM of relative cell growth are presented.

[8] = system: SUDHL4 B cell lymphoma cells; assay: MTS cell proliferation assay, SUDHL4; assay type: cell-based, human; conditions: 2, 4 and 6 μM, 24 and 48 hours
Method: SUDHL4 human DLBCL cells were incubated for 48 hours in the presence of empty vehicle or 2, 4 and 6 μM of IT-848, IT-878, PS-1145, or ibrutinib, Cell proliferation was analyzed after 24 and 48 hours by MTS assay. Mean and SEM or relative cell growth are presented.
as §1

[9] = system: MM.1S multiple myeloma cells; assay: MTS cell proliferation assay, MM.1S; assay type: cell-based, human; conditions: 2, 4 and 6 μM, 24 and 48 hours
Method: MM.1S human multiple myeloma cells were incubated for 48 hours in the presence of empty vehicle or 2, 4 and 6 μM of IT-848, IT-878, PS-1145, or ibrutinib, Cell proliferation was analyzed after 24 and 48 hours by MTS assay. Mean and SEM or relative cell growth are presented.
as §1

interleukin 6 (IL-6) = assay: IL-6 secretion by ELISA in DLBCL and MM cell lines; assay type: cell-based, human; conditions: TMD8, HBL1 and U266 cells; 4 and 6 μM; 12 and 24 hours
Method: TMD8, HBL1 and U266 cells were incubated for 24 hours in the presence of empty vehicle or IT-848 (4 and 6 μM). IL-6 concentrations in the culture media were analyzed after 12 and 24 hours by ELISA. Mean and SEM of relative IL-6 levels (percentage of vehicle) are presented.

interleukin 10 (IL-10) = assay: IL-10 secretion by ELISA in DLBCL and MM cell lines; assay type: cell-based, human; conditions: TMD8, HBL1 and U266 cells; 4 and 6 μM; 12 and 24 hours
Method: TMD8, HBL1 and U266 cells were incubated for 24 hours in the presence of empty vehicle or IT-848 (4 and 6 μM). IL-10 concentrations in the culture media were analyzed after 12 and 24 hours by ELISA. Mean and SEM of relative IL-10 levels (percentage of vehicle) are presented.

[10] = system: NFAT transcriptional activity; assay: Jurkat/Luciferase/NFAT transcriptional reporter assay; assay type: cell-based; conditions: PMA/ionomycin stimulated; 12 hours; 1, 3, 6 and 10 μM
Method: as §2, §3

mouse splenocytes [11] = assay: ROS levels by DCFDA assay in mouse splenocytes; assay type: cell-based
Method: (§6) MM.1S cells, U266 cells or mouse splenocytes were cultured in the presence of empty vehicle or serial dilutions of IT-848. ROS levels were quantified after 4 hours and 24 hours by DCFDA assay.
(§7) Cells were treated in vitro with IT-848 (compound of Formula I), IT-878 (compound of Formula II) or vehicle solution. Reactive oxygen species (ROS) levels were analyzed by cell labelling with 2′, 7′-dichlorofluorescein diacetate (DCFDA) using a Cellular Reactive Oxygen Species Detection Assay Kit (Abcam, Cambridge, Mass.) ROS levels were analyzed by quantifying the fluorogenic marker DCFDA using flow cytometery (LSR II, BD Bioscience, San Jose, Calif.).

[12] = system: TMD8 B cell lymphoma cells; assay: MTS cell proliferation assay, TMD8; assay type: cell-based, human; conditions: 2, 4 and 6 μM, 24 and 48 hours
Method: TMD8 human DLBCL cells were incubated for 48 hours in the presence of empty vehicle or 2, 4 and 6 μM of IT-848, IT-878, PS-1145, or ibrutinib, Cell proliferation was analyzed after 24 and 48 hours by MTS assay. Mean and SEM or relative cell growth are presented.
as §1

MM.1S and U266 cells = assay: ROS levels by DCFDA assay in multiple myeloma cells; assay type: cell-based, human
Method: as §6, §7

**Q.** For CC(C)C[C@H](NC(=O)[C@H](Cc1ccccc1)NC(=O)c1cnccn1)B(O)O [bortezomib, reference compound], which “onset of hind leg paralysis” value [1] is on record?
**A.** delayed

**Q.** What about the “tumor growth by in vivo bioluminescence imaging (BLI)” value [1] of the same compound?
**A.** efficacious

**Q.** With CCCCCCOc1ccc2cc3c(=O)[nH]c(=O)nc-3oc2c1Cl [IT-848, 9-chloro-8-(hexyloxy)-2H-chromeno[2,3-d]pyrimidine-2,4(3H)-dione] as the compound, how does the “effect on activity of Panobinostat (cell growth, MTS)” value (TMD8 cells) read?
**A.** enhances the activity

**Q.** And the “cell growth (MTS)” value [2]?
**A.** inhibits growth

**Q.** And the “effect on Nrf2 transcriptional activity” value [3]?
**A.** spared

**Q.** And the “viability and metabolic activity of healthy cells” value (“viability and metabolic activity” for short) (mouse splenocytes [4])?
**A.** acceptable level of compromise

**Q.** And the “specificity of inhibition of transcriptional activity” value [5]?
**A.** specific to NF-kB

**Q.** And the clearance [6]?
**A.** slow

**Q.** And the “viability and metabolic activity” value [7]?
**A.** acceptable level of compromise

**Q.** What about the “effect on activity of Bortezomib (cell growth, MTS)” value (HBL1 cells) of the same compound?
**A.** enhances the activity

**Q.** What about the “cell growth (MTS)” value [8] of the same compound?
**A.** inhibits growth

**Q.** What about the “cell growth (MTS)” value [9] of the same compound?
**A.** inhibits growth

**Q.** What about the “secretion of IL-6” value (interleukin 6 (IL-6)) of the same compound?
**A.** decreased

**Q.** What about the “secretion of IL-10” value (interleukin 10 (IL-10)) of the same compound?
**A.** decreased

**Q.** What about the “effect on NFAT transcriptional activity” value [10] of the same compound?
**A.** spared

**Q.** What about the “onset of hind leg paralysis” value [1] of the same compound?
**A.** delayed

**Q.** What about the “tumor growth by in vivo bioluminescence imaging (BLI)” value [1] of the same compound?
**A.** efficacious

**Q.** What about the ROS levels (mouse splenocytes [11]; after 4 hours) of the same compound?
**A.** did not alter levels

**Q.** And the ROS levels (mouse splenocytes [11]; after 24 hours)?
**A.** small increase

**Q.** What about the “cell growth (MTS)” value [12] of the same compound?
**A.** inhibits growth

**Q.** What about the ROS levels (MM.1S and U266 cells; after 24 hours) of the same compound?
**A.** decreased levels

**Q.** What about the ROS levels (MM.1S and U266 cells; after four hours) of the same compound?
**A.** unchanged or increased levels

**Q.** Which “effect on Nrf2 transcriptional activity” value [3] does the source give for COCCCCOc1ccc2cc3c(=O)[nH]c(=O)nc-3oc2c1Cl [IT-878, 9-chloro-8-(4-methoxybutoxy)-2H-chromeno[2,3-d]pyrimidine-2,4(3H)-dione] here?
**A.** spared

**Q.** And the “viability and metabolic activity” value (mouse splenocytes [4])?
**A.** acceptable level of compromise

**Q.** What about the “specificity of inhibition of transcriptional activity” value [5] of the same compound?
**A.** specific to NF-kB

**Q.** What about the “viability and metabolic activity” value [7] of the same compound?
**A.** acceptable level of compromise

**Q.** What about the “effect on NFAT transcriptional activity” value [10] of the same compound?
**A.** spared
